{"source": "paper PMC6366436", "about": "(Journal of Enzyme Inhibition and Medicinal Chemistry, 2019)", "key": {"[1]": {"target": "TcCA", "settings": "read-out: FAM; Hepes pH 7.5, 0.1 M Na2SO4, 25 °C; 15 min pre-incubation"}, "[2]": {"target": "T1, VchCAα (Vibrio cholerae, UniProt Q9KMP6)", "T1 construct": "gene VC_A0274", "T1 sequence (Q9KMP6 21-239 limits assumed)": "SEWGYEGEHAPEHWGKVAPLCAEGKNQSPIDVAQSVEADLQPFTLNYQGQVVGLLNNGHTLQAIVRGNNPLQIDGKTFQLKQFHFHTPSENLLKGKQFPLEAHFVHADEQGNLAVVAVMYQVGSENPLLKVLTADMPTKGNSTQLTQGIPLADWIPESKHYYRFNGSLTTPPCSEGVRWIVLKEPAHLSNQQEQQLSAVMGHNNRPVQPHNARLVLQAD", "settings": "read-out: FAM; Hepes pH 7.5, 0.1 M Na2SO4, 25 °C; 15 min pre-incubation"}, "[3]": {"target": "T2, VchCAγ (Vibrio cholerae, UniProt Q9KVT1)", "T2 construct": "gene VC_0058", "T2 sequence (Q9KVT1 1-184)": "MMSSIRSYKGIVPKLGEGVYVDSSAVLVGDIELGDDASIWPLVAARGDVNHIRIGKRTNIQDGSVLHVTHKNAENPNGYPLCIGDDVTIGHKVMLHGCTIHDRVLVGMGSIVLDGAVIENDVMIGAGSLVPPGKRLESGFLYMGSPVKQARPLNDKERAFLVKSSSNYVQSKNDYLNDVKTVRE", "settings": "read-out: FAM; TRIS pH 8.3, 0.1 M Na2SO4, 25 °C; 15 min pre-incubation"}, "[4]": {"target": "T3, PhaCAγ", "T3 construct": "gene PhaCA", "settings": "read-out: FAM; TRIS pH 8.3, 0.1 M Na2SO4, 25 °C; 15 min pre-incubation"}, "[5]": {"target": "T4, MgaCA (Malassezia globosa, UniProt A8Q1N3)", "T4 construct": "gene MGL_1814", "T4 sequence (A8Q1N3 entry or part of it)": "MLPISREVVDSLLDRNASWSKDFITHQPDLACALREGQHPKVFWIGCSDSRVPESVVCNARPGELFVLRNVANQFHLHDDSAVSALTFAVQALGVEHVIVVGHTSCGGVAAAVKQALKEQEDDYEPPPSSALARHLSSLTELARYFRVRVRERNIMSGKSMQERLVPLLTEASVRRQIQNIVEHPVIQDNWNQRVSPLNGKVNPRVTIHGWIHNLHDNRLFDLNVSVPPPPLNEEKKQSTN", "format": "biochemical", "settings": "read-out: FAM"}, "[6]": {"target": "T5, CgNce103 (Nakaseomyces glabratus, UniProt Q6FTL6)", "T5 construct": "gene NCE103", "T5 sequence (Q6FTL6 entry or part of it)": "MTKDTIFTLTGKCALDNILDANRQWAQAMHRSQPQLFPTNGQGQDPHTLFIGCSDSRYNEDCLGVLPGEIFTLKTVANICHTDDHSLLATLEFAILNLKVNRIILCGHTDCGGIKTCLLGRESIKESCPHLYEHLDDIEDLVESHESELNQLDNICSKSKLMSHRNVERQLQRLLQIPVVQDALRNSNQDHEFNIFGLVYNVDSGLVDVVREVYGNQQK", "format": "biochemical", "settings": "read-out: FAM"}, "[7]": {"target": "Carbonate dehydratase (Sulfurihydrogenibium sp. (strain YO3AOP1), UniProt B2V8E3)", "experiment": "biochemical"}, "[8]": {"target": "T6, SazCA (Sulfurihydrogenibium azorense, UniProt C1DTU5)", "T6 construct": "gene SULAZ_0541", "T6 sequence (C1DTU5 entry or part of it)": "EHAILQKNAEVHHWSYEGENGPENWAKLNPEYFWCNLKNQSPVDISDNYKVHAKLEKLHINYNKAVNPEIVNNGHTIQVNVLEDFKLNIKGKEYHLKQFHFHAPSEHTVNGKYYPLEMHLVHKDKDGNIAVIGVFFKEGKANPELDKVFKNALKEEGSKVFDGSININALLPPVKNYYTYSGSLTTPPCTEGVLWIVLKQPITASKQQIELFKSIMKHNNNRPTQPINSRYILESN", "format": "biochemical", "settings": "read-out: FAM"}, "[9]": {"target": "T7, PfCA (Plasmodium falciparum, UniProt Q8IHW5)", "T7 construct": "gene PF3D7_1140000", "T7 sequence (Q8IHW5 entry or part of it)": "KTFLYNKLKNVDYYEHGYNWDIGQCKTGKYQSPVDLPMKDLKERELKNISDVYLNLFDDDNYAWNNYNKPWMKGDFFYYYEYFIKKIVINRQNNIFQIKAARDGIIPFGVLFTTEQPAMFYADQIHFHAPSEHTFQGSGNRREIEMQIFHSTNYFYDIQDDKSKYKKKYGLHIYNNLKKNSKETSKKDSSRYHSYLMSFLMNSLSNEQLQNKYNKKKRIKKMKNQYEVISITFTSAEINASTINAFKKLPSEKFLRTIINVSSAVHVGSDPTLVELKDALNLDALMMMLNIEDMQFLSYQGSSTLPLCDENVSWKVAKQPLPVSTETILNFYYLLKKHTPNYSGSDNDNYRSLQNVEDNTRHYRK", "format": "biochemical", "settings": "Hepes pH 7.5, 0.1 M Na2SO4, 25 °C; 15 min pre-incubation; read-out: FAM"}, "[10]": {"target": "T8, VchCAβ (Vibrio cholerae, UniProt A0A086SLX8)", "T8 construct": "gene can", "T8 sequence (A0A086SLX8 1-222)": "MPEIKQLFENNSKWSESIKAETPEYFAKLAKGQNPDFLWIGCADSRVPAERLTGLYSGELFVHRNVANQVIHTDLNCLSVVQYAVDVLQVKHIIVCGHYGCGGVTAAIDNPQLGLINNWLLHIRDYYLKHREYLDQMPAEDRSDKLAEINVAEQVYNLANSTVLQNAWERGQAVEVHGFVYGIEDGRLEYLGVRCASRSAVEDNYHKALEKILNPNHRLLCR", "experiment": "biochemical"}, "[11]": {"target": "T9, BpsCAβ (Burkholderia pseudomallei, UniProt Q63Y17)", "T9 construct": "gene BPSL0372", "T9 sequence (Q63Y17 1-256)": "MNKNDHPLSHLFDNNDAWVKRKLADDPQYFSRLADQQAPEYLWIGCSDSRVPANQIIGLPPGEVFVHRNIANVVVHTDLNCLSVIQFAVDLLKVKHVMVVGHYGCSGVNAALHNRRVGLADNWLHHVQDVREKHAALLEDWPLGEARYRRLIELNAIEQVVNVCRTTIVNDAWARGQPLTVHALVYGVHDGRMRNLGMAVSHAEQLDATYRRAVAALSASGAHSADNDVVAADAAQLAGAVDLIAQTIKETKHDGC", "format": "biochemical", "settings": "read-out: FAM"}, "[12]": {"target": "T10, TweCAδ (Conticribra weissflogii, UniProt Q5U9J1)", "T10 construct": "gene ca1", "T10 sequence (Q5U9J1 entry or part of it)": "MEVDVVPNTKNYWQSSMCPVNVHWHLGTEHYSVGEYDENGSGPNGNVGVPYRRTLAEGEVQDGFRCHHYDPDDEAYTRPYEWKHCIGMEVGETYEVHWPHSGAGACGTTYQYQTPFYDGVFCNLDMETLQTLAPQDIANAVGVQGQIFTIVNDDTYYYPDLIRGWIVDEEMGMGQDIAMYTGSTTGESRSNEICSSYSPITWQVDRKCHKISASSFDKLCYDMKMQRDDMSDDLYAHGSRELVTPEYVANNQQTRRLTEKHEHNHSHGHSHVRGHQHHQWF", "format": "biochemical", "settings": "Hepes pH 7.5, 0.1 M Na2SO4, 25 °C; 15 min pre-incubation; read-out: FAM"}, "[13]": {"target": "T11, NcoCAγ (Nostoc commune, UniProt A0A2R5FUA4)", "T11 construct": "gene NIES4072_30780", "T11 sequence (A0A2R5FUA4 entry or part of it)": "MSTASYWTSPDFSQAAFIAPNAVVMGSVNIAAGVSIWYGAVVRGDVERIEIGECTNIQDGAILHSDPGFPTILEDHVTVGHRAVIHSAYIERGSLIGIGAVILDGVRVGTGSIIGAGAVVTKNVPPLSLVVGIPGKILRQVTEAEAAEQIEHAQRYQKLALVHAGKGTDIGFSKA", "format": "biochemical", "settings": "TRIS pH 8.3, 0.1 M Na2SO4, 25 °C; 15 min pre-incubation; read-out: FAM"}, "[14]": {"target": "T12, BpsCAγ", "T12 construct": "gene BpsCAgamma", "settings": "read-out: FAM"}, "[15]": {"target": "CpsCAγ", "sequence (UPI00051A3E8B entry or part of it)": "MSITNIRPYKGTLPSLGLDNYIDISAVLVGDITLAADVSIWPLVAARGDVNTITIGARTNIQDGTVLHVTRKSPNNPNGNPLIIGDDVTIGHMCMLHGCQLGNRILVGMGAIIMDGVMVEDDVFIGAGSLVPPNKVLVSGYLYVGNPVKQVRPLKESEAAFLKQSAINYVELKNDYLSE", "settings": "read-out: FAM; TRIS pH 8.3, 0.1 M Na2SO4, 25 °C; 15 min pre-incubation"}, "[16]": {"target": "Can2 (Cryptococcus neoformans, UniProt Q3I4V7)", "sequence (Q3I4V7 entry or part of it)": "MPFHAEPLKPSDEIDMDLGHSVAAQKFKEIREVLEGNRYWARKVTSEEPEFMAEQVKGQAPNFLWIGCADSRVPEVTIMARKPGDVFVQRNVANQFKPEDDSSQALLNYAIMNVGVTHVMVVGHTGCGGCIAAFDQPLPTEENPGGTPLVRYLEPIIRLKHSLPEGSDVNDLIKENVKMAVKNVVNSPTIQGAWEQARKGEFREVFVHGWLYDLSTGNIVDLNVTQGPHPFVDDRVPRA", "format": "biochemical", "settings": "read-out: FAM"}}}
{"smiles": "NC(N)=Nc1nc(CSCCC(N)=NS(N)(=O)=O)cs1", "note": "[FAM, Famotidine]", "values": [{"measurement": "Ki", "setting": "[1]", "result": 5.71, "unit": "µM"}, {"measurement": "Ki", "setting": "[2]", "result": 72.3, "unit": "nM"}, {"measurement": "Ki", "setting": "[3]", "result": 5.32, "unit": "µM"}, {"measurement": "Ki", "setting": "[4]", "result": 66.8, "unit": "nM"}, {"measurement": "Ki", "setting": "[5]", "result": 42.1, "unit": "µM"}, {"measurement": "Ki", "setting": "[6]", "result": 13.6, "unit": "nM"}, {"measurement": "Ki", "setting": "[7]", "result": 230, "unit": "nM"}, {"measurement": "Ki", "setting": "[8]", "result": 124, "unit": "nM"}, {"measurement": "Ki", "setting": "[9]", "result": 142, "unit": "nM"}, {"measurement": "Ki", "setting": "[10]", "result": 83.9, "unit": "µM"}, {"measurement": "Ki", "setting": "[11]", "result": 8.27, "unit": "µM"}, {"measurement": "Ki", "setting": "[12]", "result": 408, "unit": "nM"}, {"measurement": "Ki", "setting": "[13]", "result": 1690, "unit": "nM"}, {"measurement": "Ki", "setting": "[14]", "result": 8.29, "unit": "µM"}, {"measurement": "Ki", "setting": "[15]", "result": 89, "unit": "nM"}, {"measurement": "Ki", "setting": "[16]", "result": 107, "unit": "nM"}]}
